In patent US7067619B2, “Integrin-binding peptides” (La Jolla Cancer Research Foundation, priority 1993, dated 2006):
Bridge positions count the residues as written; N and C are the ends. Ends that are not written are not given here. Peptide text beside a SMILES is read from it.

Experiments:
[1] = molecular target: T1, αvβ3 integrin (Homo sapiens, UniProt P05106+P06756); experiment: Inhibition of peptide-displaying phage binding to αvβ3 integrin by synthetic peptides; set-up: The αvβ3, αvβ5 and α5β1 integrins were isolated from human placental extracts; from tissue; host or cells: human placenta
T1 sequence (P06756 31-889 limits assumed): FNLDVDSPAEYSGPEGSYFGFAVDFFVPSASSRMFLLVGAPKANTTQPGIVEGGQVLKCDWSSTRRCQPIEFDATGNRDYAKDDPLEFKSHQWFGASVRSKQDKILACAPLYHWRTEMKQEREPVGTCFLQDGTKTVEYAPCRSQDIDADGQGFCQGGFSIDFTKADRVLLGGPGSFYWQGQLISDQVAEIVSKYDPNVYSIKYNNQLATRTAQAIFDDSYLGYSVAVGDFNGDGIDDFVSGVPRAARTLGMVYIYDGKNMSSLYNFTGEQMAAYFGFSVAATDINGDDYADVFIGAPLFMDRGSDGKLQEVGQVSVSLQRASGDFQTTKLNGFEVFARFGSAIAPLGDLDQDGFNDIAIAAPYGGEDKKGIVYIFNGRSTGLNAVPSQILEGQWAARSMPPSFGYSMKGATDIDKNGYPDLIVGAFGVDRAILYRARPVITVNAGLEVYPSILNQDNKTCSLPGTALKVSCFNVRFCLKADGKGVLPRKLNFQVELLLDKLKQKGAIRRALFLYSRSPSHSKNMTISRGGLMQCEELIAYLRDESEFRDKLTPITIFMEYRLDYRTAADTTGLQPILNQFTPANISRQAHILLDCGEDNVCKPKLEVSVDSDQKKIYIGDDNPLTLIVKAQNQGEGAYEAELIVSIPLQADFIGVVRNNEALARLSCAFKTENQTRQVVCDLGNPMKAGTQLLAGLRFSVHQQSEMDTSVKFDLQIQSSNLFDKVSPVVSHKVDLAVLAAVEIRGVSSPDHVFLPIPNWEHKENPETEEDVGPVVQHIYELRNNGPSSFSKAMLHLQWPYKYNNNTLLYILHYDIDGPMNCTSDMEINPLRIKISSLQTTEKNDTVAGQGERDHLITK
T1 sequence (P06756 891-1048 partner limits assumed): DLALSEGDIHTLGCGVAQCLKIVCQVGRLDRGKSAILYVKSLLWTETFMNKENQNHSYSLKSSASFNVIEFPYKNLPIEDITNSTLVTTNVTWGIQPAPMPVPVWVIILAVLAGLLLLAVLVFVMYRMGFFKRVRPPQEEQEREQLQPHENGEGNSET
T1 sequence (P05106 27-788): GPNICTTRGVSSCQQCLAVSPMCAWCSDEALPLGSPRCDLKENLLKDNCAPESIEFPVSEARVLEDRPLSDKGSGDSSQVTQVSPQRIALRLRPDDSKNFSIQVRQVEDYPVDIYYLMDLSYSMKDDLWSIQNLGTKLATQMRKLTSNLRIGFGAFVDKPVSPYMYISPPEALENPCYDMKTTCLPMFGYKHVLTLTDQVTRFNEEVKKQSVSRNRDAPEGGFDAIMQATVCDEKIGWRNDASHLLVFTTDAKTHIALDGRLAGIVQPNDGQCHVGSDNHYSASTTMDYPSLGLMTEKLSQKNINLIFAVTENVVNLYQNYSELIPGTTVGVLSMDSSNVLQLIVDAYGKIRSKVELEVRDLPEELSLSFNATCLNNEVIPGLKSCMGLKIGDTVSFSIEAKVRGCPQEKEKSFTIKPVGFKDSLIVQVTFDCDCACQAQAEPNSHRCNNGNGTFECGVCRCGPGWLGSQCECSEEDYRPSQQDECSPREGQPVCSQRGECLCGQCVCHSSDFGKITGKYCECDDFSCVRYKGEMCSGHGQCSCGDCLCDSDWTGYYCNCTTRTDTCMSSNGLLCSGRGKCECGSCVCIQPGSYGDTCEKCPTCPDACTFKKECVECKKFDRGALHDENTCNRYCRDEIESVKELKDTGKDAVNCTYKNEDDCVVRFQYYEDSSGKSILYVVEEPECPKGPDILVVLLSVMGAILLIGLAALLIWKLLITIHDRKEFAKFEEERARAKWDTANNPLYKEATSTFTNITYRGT
From the text: In addition, most of the phage-binding activity in the αvβ3 preparation was captured into microliter wells coated with antibodies against the αv or β3 subunits as described previously (Koivunen et al., J. Biol. Chem., 268:20205–10 (1993). The αIIbβ3 integrin was isolated from outdated platelets (Pytela et al., Science, 231:1559–1562 (1986)).
Binding of individual cloned phage to integrins was studied in microliter wells as described in Koivunen et al., J. Cell. Biol., 124:373–380 (1994). Phage binding to α5β1 and αvβ3 were assayed in TBS buffer containing 1% BSA and 1 mM MnCl2 and binding to αvβ5 in the presence of 1 mM CaCl2. Phage that were bound were determined by their ability to infect F-pilus positive K91kan bacteria. Bacteria were grown overnight in microliter wells in the presence of tetracycline and the absorbance indicative of bacterial growth was read at 600 nm with an ELISA plate reader.
The ability of […] [SEQ ID NO:12] and CRGDC [SEQ ID NO:37] containing peptides to inhibit binding of CRGDCL-displaying [SEQ ID NO:7] phage to the microwells coated with αvβ3 integrin also was examined. CRGDCL-displaying [SEQ ID NO:7] phage were added to a well and either cyclic […] [SEQ ID NO:6] or cyclic […] [SEQ ID NO:5] was added to compete for binding. Binding was quantitated as described above.

[2] = molecular target: T1, αvβ3 integrin; experiment: Inhibition of αvβ3-mediated attachment of IMR-90 cells to vitronectin; type: cell-based; set-up: endogenous in cells; host or cells: IMR-90 cells
Experimental: FIG. 13—[…] attachment of IMR-90 cells to vitronectin. The cells that bound were determined as described herein.
Cell lines expressing different integrins were used to examine peptide inhibition of integrin function. A human melanoma cell line, C8161, a fibroblast cell line, WI-38, and an osteosarcoma cell line, MG-63 (described by Seftor et al., Canc. Res., 53:3411–3415 (1993); Vogel et al., J. Biol. Chem., 265:5934–5937 (1990); and Pytela et al. (1985), supra, respectively, each of which is incorporated herein by reference) attach to fibronectin through α5β1 integrin, as does B2/α27, a CHO cell line transfected with human α5. B2/C1, the control parental CHO line (Bauer et al., J. Cell. Biol. 116:477–487 (1992), which is incorporated herein by reference), attaches via […]. CHO cells C11 and NIH 3T3 cells express the endogenous Chinese hamster and mouse α5β1 integrins, respectively. The human melanoma cells, A375-M, attach to fibronectin through both α5β1 and α4β1 integrins (Mould et al., J. Biol. Chem. 265:4020–4024 (1990), which is incorporated herein by reference). […]
Cell lines expressing fibronectin-binding integrins were used to determine peptide activities against these integrins in the cell attachment assay described by Ruoslahti et al., Meth. […] Bound cells were quantitated by staining with 0.1% amido black.

[3] = tested on: α5β1 integrin; experiment: Inhibition of α5β1-mediated cell attachment to fibronectin; type: cell-based, human
From the text: (§1) Cell lines expressing different integrins were used to examine peptide inhibition of integrin function. A human melanoma cell line, C8161, a fibroblast cell line, WI-38, and an osteosarcoma cell line, MG-63 (described by Seftor et al., Canc. Res., 53:3411–3415 (1993); Vogel et al., J. Biol. Chem., 265:5934–5937 (1990); and Pytela et al. (1985), supra, respectively, each of which is incorporated herein by reference) attach to fibronectin through α5β1 integrin, as does B2/α27, a CHO cell line transfected with human α5. B2/C1, the control parental CHO line (Bauer et al., J. Cell. Biol. 116:477–487 (1992), which is incorporated herein by reference), attaches via […]. CHO cells C11 and NIH 3T3 cells express the endogenous Chinese hamster and mouse α5β1 integrins, respectively. The human melanoma cells, A375-M, attach to fibronectin through both α5β1 and α4β1 integrins (Mould et al., J. Biol. Chem. 265:4020–4024 (1990), which is incorporated herein by reference). CHO cell line B2/v7 express the αvβ1 integrin (Zhang et al., J. Cell. Biol. 122:235–242 (1993), which is incorporated herein by reference). The vitronectin-binding integrins […] and αvβ3 were assayed using the cell line HT-29 and IMR-90, respectively (Koivunen et al., J. Biol. Chem. 268: 20205–20210 (1993)).
(§2) Cell lines expressing fibronectin-binding integrins were used to determine peptide activities against these integrins in the cell attachment assay described by Ruoslahti et al., Meth. Enzymol., 144:803–831 (1982), which is incorporated herein by reference. Human plasma fibronectin was iodinated as described by Morla and Ruoslahti, J. Cell Biol., 118:421–429 (1992), which is incorporated herein by reference. Vitronectin was obtained from Telios Pharmaceuticals (San Diego, Calif.). […] Peptide was coated on plastic by incubating at 37° C. for 2 hours in phosphate buffered saline containing 0.25% glutaraldehyde to crosslink the peptide. Free binding sites on the plastic were blocked using BSA. Approximately 1×10^5 cells per well were allowed to attach for 1 hour in the presence or absence of competing peptides. Bound cells were quantitated by staining with 0.1% amido black.
(§3) Inhibition of cell attachment mediated by either fibronectin- or vitronectin-binding integrins was performed to determine peptide specificity in a biologically relevant system. The assays and cell lines were performed as described above. FIGS. 5 and 6 show the results of cell attachment mediated by the fibronectin binding integrins α5β1 and αvβ1.

[4] = molecular target: αvβ5 integrin (Homo sapiens, UniProt P06756+P18084); experiment: Inhibition of αvβ5-mediated cell attachment to vitronectin; type: cell-based; set-up: αvβ5-mediated attachment of HT-29 cells to vitronectin; endogenous in cells; host or cells: HT-29 cells; UCLA-P3 cells
Chain of αvβ5 integrin (P06756 31-889 limits assumed): as the sequence (P06756 31-889 limits assumed) above
Chain of αvβ5 integrin (P06756 891-1048 partner limits assumed): as the sequence (P06756 891-1048 partner limits assumed) above
Chain of αvβ5 integrin (P18084 24-799): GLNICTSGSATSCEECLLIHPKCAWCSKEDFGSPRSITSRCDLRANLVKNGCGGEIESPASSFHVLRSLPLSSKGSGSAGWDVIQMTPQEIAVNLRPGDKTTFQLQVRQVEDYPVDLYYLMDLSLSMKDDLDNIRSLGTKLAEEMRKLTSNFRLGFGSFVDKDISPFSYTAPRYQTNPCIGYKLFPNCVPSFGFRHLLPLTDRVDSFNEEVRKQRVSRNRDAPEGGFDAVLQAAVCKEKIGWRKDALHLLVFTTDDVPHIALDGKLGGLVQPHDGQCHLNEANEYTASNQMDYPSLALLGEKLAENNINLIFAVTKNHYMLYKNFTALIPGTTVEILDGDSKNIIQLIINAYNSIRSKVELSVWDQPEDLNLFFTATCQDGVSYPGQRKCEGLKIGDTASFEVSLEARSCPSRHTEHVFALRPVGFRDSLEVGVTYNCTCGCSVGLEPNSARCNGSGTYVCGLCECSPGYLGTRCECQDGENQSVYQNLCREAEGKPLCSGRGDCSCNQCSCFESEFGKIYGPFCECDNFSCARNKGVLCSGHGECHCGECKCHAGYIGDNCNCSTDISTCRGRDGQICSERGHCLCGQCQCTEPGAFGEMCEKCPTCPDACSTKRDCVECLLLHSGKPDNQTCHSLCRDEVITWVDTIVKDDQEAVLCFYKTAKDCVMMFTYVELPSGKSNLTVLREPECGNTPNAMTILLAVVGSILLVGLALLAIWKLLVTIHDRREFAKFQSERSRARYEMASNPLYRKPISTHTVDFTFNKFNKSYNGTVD
From the text: FIG. 12—αvβ5-mediated attachment of HT-29 cells to vitronectin.
as §1, §2, §3

With “A*CPSRLDSPC*G (ACPSRLDSPCG; disulfide 2-10 (inferred))” the “affinity for αvβ3” value ([1]; phage binding experiments) was “low”, the “selectivity towards the αvβ3 integrin” value ([1]; phage binding experiments) was “partial selectivity” and the “concentration at which inhibitory activity was shown” value ([2]; vitronectin) was “higher than 1 mM”.
With GACRRETAWACGA the “inhibition of cell attachment to a 110 kDa fragment of fibronectin” value ([3]; 110 kDa fragment containing the cell attachment domain) was “inhibited”, the “inhibition of attachment of A375-M cells to fibronectin” value ([3]; A375-M cells (also express α4β1)) was “only partially inhibited” and the “efficiency at inhibiting binding to α5β1 compared with cyclic CRGDCL peptide” value ([3]; B2/α27 cells, fibronectin, FIG. 5) was “more efficient”. For the same molecule, the “binding activity following reduction of the disulfide bond and alkylation of the cysteine residues” value ([3]; linearized vs cyclic peptide) was “greatly decreased”, the “reduction of activity after reduction and alkylation of the disulfide bond” value ([3]; linearized vs cyclic peptide) was “about 50 ×” and the “inhibition of binding of CRGDCL-displaying phage to integrin-coated wells” value ([1]; CRGDCL-displaying phage, αvβ3-coated wells, FIG. 3 (result sentence prints α5β1)) was “ineffective”. The “activity against cell attachment to vitronectin” value ([4]; all concentrations tested, FIG. 7 (sentence prints αvβ1)) was “essentially devoid of activity”.
In the case of C[C@H](N)C(=O)N[C@H]1CSSC[C@@H](C(=O)NCC(=O)O)NC(=O)[C@H](Cc2ccccc2)NC(=O)[C@@H]2CSSC[C@H](NC(=O)[C@H](CC(=O)O)NC1=O)C(=O)N[C@@H](CCCNC(=N)N)C(=O)NCC(=O)N[C@@H](CC(=O)O)C(=O)N2 (H-ACDCRGDCFCG-OH; disulfide 2-10, 4-8), the “activity toward α5β1 compared to *CRGDC*” value ([3]; cell attachment to fibronectin) is reported as “significantly decreased activity”, the “activity toward α5β1 compared to linear GRGDSP” value ([3]; cell attachment to fibronectin) is reported as “only slightly better” and the “inhibition of phage binding to αvβ3 relative to *CRGDC*” value ([1]; better than *CRGDC*) is reported as 5 fold. For the same molecule, the “affinity relative to *CRGDC* in HT-29 attachment to vitronectin” value ([4]; HT-29 cells, higher than *CRGDC*) was 40 fold, the “affinity relative to A*CRGDGWC*G in HT-29 attachment to vitronectin” value ([4]; HT-29 cells, higher than A*CRGDGWC*G) was 40 fold and the “enhancement in activity relative to *CRGDC* in UCLA-P3 cells” value ([4]; UCLA-P3 cells) was 20 fold. The “effectiveness relative to *CRGDC* in IMR-90 attachment to vitronectin” value ([2]; more effective than *CRGDC*) was 20 fold.
